Results: PubChem BioAssay (NCI)
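Protocol summary: plate cells (96-well), add compound at 5 concentrations, incubate 48 h, interpolate endpoints linearly. At the GI50, growth is halved. TGI: total growth inhibition.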

Assays:
Assay in all cases: NCI-60 cell line screen, 48 h
IGROV1 ovarian = tested on: IGROV1 ovarian
ACHN renal = tested on: ACHN renal
SK-MEL-28 melanoma = tested on: SK-MEL-28 melanoma
CCRF-CEM leukemia = tested on: CCRF-CEM leukemia
HCC-2998 colon = tested on: HCC-2998 colon
OVCAR-5 ovarian = tested on: OVCAR-5 ovarian
HCT-116 colon = tested on: HCT-116 colon
UACC-62 melanoma = tested on: UACC-62 melanoma
K-562 leukemia = tested on: K-562 leukemia
RXF 393 renal = tested on: RXF 393 renal
UACC-257 melanoma = tested on: UACC-257 melanoma
SK-MEL-5 melanoma = tested on: SK-MEL-5 melanoma
OVCAR-4 ovarian = tested on: OVCAR-4 ovarian
NCI-H226 lung = tested on: NCI-H226 lung
DU-145 prostate = tested on: DU-145 prostate
SR leukemia = tested on: SR leukemia
SF-268 CNS = tested on: SF-268 CNS
HOP-62 NSCLC = tested on: HOP-62 NSCLC
SNB-75 CNS = tested on: SNB-75 CNS
PC-3 prostate = tested on: PC-3 prostate
U251 CNS = tested on: U251 CNS
T-47D breast = tested on: T-47D breast
MCF7 breast = tested on: MCF7 breast
NCI-H23 lung = tested on: NCI-H23 lung
HS 578T breast = tested on: HS 578T breast
OVCAR-3 ovarian = tested on: OVCAR-3 ovarian
MOLT-4 leukemia = tested on: MOLT-4 leukemia
TK-10 renal = tested on: TK-10 renal
SF-295 CNS = tested on: SF-295 CNS
SK-MEL-2 melanoma = tested on: SK-MEL-2 melanoma
MDA-MB-435 = tested on: MDA-MB-435
HOP-92 NSCLC = tested on: HOP-92 NSCLC
A549 NSCLC = tested on: A549 NSCLC
A498 renal = tested on: A498 renal
LOX IMVI melanoma = tested on: LOX IMVI melanoma
NCI-H522 lung = tested on: NCI-H522 lung
SF-539 CNS = tested on: SF-539 CNS
CAKI-1 renal = tested on: CAKI-1 renal
MDA-MB-231 breast = tested on: MDA-MB-231 breast
786-0 renal = tested on: 786-0 renal
SW-620 colon = tested on: SW-620 colon
RPMI-8226 leukemia = tested on: RPMI-8226 leukemia
NCI-H460 lung = tested on: NCI-H460 lung
M14 melanoma = tested on: M14 melanoma
OVCAR-8 ovarian = tested on: OVCAR-8 ovarian
KM12 colon = tested on: KM12 colon
NCI/ADR-RES ovarian = tested on: NCI/ADR-RES ovarian
COLO 205 colon = tested on: COLO 205 colon
MALME-3M melanoma = tested on: MALME-3M melanoma
UO-31 renal = tested on: UO-31 renal
EKVX NSCLC = tested on: EKVX NSCLC
HT29 colon = tested on: HT29 colon
HL-60(TB) leukemia = tested on: HL-60(TB) leukemia
SK-OV-3 ovarian = tested on: SK-OV-3 ovarian
HCT-15 colon = tested on: HCT-15 colon

## O=C1C2C(C(=O)N1CC[Se][Se]CCN1C(=O)C3C(C1=O)[C@H]1C=C[C@@H]3C1)[C@H]1C=C[C@@H]2C1 (stereo not given in full)
IGROV1 ovarian
  GI50: 220 nM
  TGI: 556 nM
ACHN renal
  GI50: 408 nM
  TGI: 2210 nM
SK-MEL-28 melanoma
  GI50: 362 nM
  TGI: 3020 nM
CCRF-CEM leukemia
  GI50: 566 nM
  TGI: 4020 nM
HCC-2998 colon
  GI50: 2620 nM
  TGI: 8920 nM
OVCAR-5 ovarian
  GI50: 1480 nM
  TGI: 5580 nM
HCT-116 colon
  GI50: 409 nM
  TGI: 2870 nM
UACC-62 melanoma
  GI50: 1370 nM
  TGI: 3240 nM
K-562 leukemia
  GI50: 1630 nM
  TGI: > 38500 nM
RXF 393 renal
  GI50: 338 nM
  TGI: 1110 nM
UACC-257 melanoma
  GI50: 452 nM
  TGI: 3140 nM
SK-MEL-5 melanoma
  GI50: 1670 nM
  TGI: 3700 nM
OVCAR-4 ovarian
  GI50: 1040 nM
  TGI: 4520 nM
NCI-H226 lung
  GI50: 219 nM
  TGI: 495 nM
DU-145 prostate
  GI50: 555 nM
  TGI: 2860 nM
SR leukemia
  GI50: 1100 nM
  TGI: > 26600 nM
SF-268 CNS
  GI50: 271 nM
  TGI: 760 nM
HOP-62 NSCLC
  GI50: 488 nM
  TGI: 2660 nM
SNB-75 CNS
  GI50: 171 nM
  TGI: 488 nM
PC-3 prostate
  GI50: 844 nM
  TGI: 4390 nM
U251 CNS
  GI50: 597 nM
  TGI: 3040 nM
T-47D breast
  GI50: 2090 nM
  TGI: 5420 nM
MCF7 breast
  GI50: 332 nM
  TGI: 4010 nM
NCI-H23 lung
  GI50: 802 nM
  TGI: 4480 nM
HS 578T breast
  GI50: 266 nM
  TGI: 1160 nM
OVCAR-3 ovarian
  GI50: 852 nM
  TGI: 2940 nM
MOLT-4 leukemia
  GI50: 410 nM
  TGI: 6680 nM
TK-10 renal
  GI50: 303 nM
  TGI: 994 nM
SF-295 CNS
  GI50: 1110 nM
  TGI: 2420 nM
SK-MEL-2 melanoma
  GI50: 1980 nM
  TGI: 5780 nM
MDA-MB-435
  GI50: 267 nM
  TGI: 744 nM
HOP-92 NSCLC
  GI50: 575 nM
  TGI: 2290 nM
A549 NSCLC
  GI50: 447 nM
  TGI: 4720 nM
A498 renal
  GI50: 686 nM
  TGI: 2260 nM
LOX IMVI melanoma
  GI50: 167 nM
  TGI: 327 nM
NCI-H522 lung
  GI50: 1790 nM
  TGI: 4440 nM
SF-539 CNS
  GI50: 223 nM
  TGI: 467 nM
CAKI-1 renal
  GI50: 301 nM
  TGI: 828 nM
MDA-MB-231 breast
  GI50: 595 nM
  TGI: 5480 nM
786-0 renal
  GI50: 369 nM
  TGI: 1290 nM
SW-620 colon
  GI50: 2620 nM
  TGI: 7590 nM
RPMI-8226 leukemia
  GI50: 2190 nM
  TGI: 5170 nM
NCI-H460 lung
  GI50: 361 nM
  TGI: 1690 nM
M14 melanoma
  GI50: 332 nM
  TGI: 1970 nM
OVCAR-8 ovarian
  GI50: 404 nM
  TGI: 2280 nM
KM12 colon
  GI50: 1350 nM
  TGI: 10200 nM
NCI/ADR-RES ovarian
  GI50: 561 nM
  TGI: 3540 nM
COLO 205 colon
  GI50: 2120 nM
  TGI: 4980 nM
MALME-3M melanoma
  GI50: 277 nM
  TGI: 1080 nM
UO-31 renal
  GI50: 247 nM
  TGI: 964 nM
EKVX NSCLC
  GI50: 274 nM
  TGI: 969 nM
HT29 colon
  GI50: 355 nM
  TGI: 12700 nM
HL-60(TB) leukemia
  GI50: 209 nM
  TGI: 477 nM
SK-OV-3 ovarian
  GI50: 2940 nM
  TGI: 6570 nM
HCT-15 colon
  GI50: 441 nM
  TGI: 2330 nM
